# Entries after “also recorded” stand apart in the source; their conditions may differ.
# What was measured:
# T. mentagrophytes #4329 = experiment: In vitro antifungal activity, serial agar dilution; settings: Trichophyton mentagrophytes, 40 h, pH 7
# Protocol: (§4) In vitro antifungal activity was determined against various fungi by the serial agar dilution method. Sabouraud dextrose agar (pH 7.0) was used for the experiment. The inoculum size was adjusted to 10^6 CFU/ml. After incubation at 28° C. for 40 hours, the minimum inhibitory concentration (MIC) was examined.
# B16 melanoma = experiment: In vivo antitumor activity against B16 melanoma (Table 10)
# Protocol: Female CDF1 mice were intraperitoneally inoculated with 0.4 ml of diluted ascitic fluid containing 10^6 lymphocytic leukemia P388 cells or 10^5 lymphoid leukemia L1210 cells and male BDF1 mice were intraperitoneally inoculated with 0.5 ml of 10% melanotic melanoma B16 brei.
# C. neoformans IAM4514 = experiment: In vitro antifungal activity, serial agar dilution; settings: Cryptococcus neoformans, IAM4514, 40 h, pH 7
# Protocol: as §4
# [1] = system: protein biosynthesis in L1210 leukemia cells; experiment: Inhibition of macromolecule biosynthesis, protein (Table 7); type: cell-based, murine
# Protocol: (§1) Inhibitory effects of BU-3285T on macromolecule biosynthesis (DNA, RNA and protein) were determined in cultured L1210 murine leukemia cells. The cells (5×10^5 cells/ml) were incubated with the compound at 37° C. for 15 minutes and then further incubated for 60 minutes after the addition of labelled precursor, ^3 H-thymidine, ^14 C-uridine or ^3 H-leucine into the cultured mixture. After washing with chilled 5% trichloroacetic acid solution, the radioactivity incorporated into the acid-insoluble fraction of the cells was determined by a liquid scintillation counter.
# L1210 leukemia = experiment: In vivo antitumor activity against L1210 leukemia (Table 9); settings: for Body wt. change on day 6 / MST (median survival time) / T/C: Q1D × 3
# [2] = system: murine and human tumor cell lines; experiment: In vitro cytotoxicity, overall statement
# Protocol: (§5) After planting 180 μl of cell suspension into wells of a 96-well microtiter plate on day 0, the test materials (20 μl) were added on day 1 and the plates were incubated for 72 hours. The cytotoxic activity was colorimetrically determined at 540 nm after staining viable cells with neutral red solution.
# [3] = system: RNA biosynthesis in L1210 leukemia cells; experiment: Inhibition of macromolecule biosynthesis, RNA (Table 7); type: cell-based, murine; settings: Mus musculus, labelled precursor, 15 min + 60 min, 37° C., read-out: IC50, RNA synthesis
# Protocol: as §1
# Candida albicans IAM4888 = experiment: In vitro antifungal activity, serial agar dilution; settings: IAM4888, 40 h, pH 7
# Protocol: as §4
# [4] = system: Fusarium moniliforme A2284; experiment: In vitro antifungal activity, serial agar dilution; settings: Fusarium verticillioides, A2284, 40 h, pH 7
# Protocol: as §4
# [5] = system: Aspergillus fumigatus IAM2530; experiment: In vitro antifungal activity, serial agar dilution; settings: IAM2530, 40 h, pH 7
# Protocol: as §4
# P388 leukemia = experiment: In vivo antitumor activity against P388 leukemia (Table 8); settings: for Body wt. change on day 4 / MST (median survival time) / T/C: Q1D × 3
# [6] = system: A549/VP29 (etoposide-resistant subline of A549) cells; experiment: In vitro cytotoxicity (Table 14); settings: A549/VP29, 72 hours, neutral red
# Protocol: as §5
# [7] = system: Moser (human colorectal carcinoma) cells; experiment: In vitro cytotoxicity (Table 6)
# Protocol: (§2) BU-3285T was tested for in vitro cytotoxicity against several murine and human tumor cell lines and for in vivo antitumor activity in mice. Mitomycin C was used as a reference compound in both in vitro and in vivo experiments. B16-F10 (murine melanoma) and Moser (human colorectal carcinoma) cells were grown to the logarithmic phase in an enriched Eagle minimum essential medium supplemented with fetal calf serum (FCS, 10%) and kanamycin (60 μg/ml); HCT-116 (human colon carcinoma) cells were in McCoy's 5A medium supplemented with FCS (10%), penicillin (100 U/ml) and streptomycin (100 μg/ml); and P388 (murine lymphocytic leukemia) cells and its vincristine-resistant subline (P388/VCR) were in RPMI 1640 medium supplemented with FCS (10%), penicillin (100 U/ml) and streptomycin (100 μg/ml).
# (§3) B16-F10, Moser, HCT-116 and P388 cells were harvested and implanted into wells of a 96-well (for B16-F10, Moser and HCT-116 cells) or a 24-well (for P388 cells) tissue culture plate with test materials at the inoculum sizes of 3×10^4, 6 ×10^4, 6×10^4 and 2×10^4 cells/ml, respectively. They were incubated at 37° C. in a humidified atmosphere of 5% CO2 and 95% air for 72 hrs. […] For P388 cells, the number of viable cells was determined by a Coulter counter.
# [8] = system: P388/VCR (vincristine-resistant subline of P388) cells; experiment: In vitro cytotoxicity (Table 6)
# Protocol: as §2, §3
# [9] = system: B16-F10 (murine melanoma) cells; experiment: In vitro cytotoxicity (Table 14); type: cell-based; settings: Mus musculus, B16-F10, 72 h
# Protocol: (§6) B16-F10 (murine melanoma), HCT-116 (human colon carcinoma), A549 (human lung carcinoma) and A549/VP29 (an etoposide-resistant subline of A549) were grown in Eagle's MEM (Nissui) supplemented with FCS (fetal calf serum, 10%) and non-essential amino acids (B16-F10), or in McCoy's 5A medium (Gibco) with FCS (10%), essential and non-essential amino acids, vitamins and antibiotics (HCT-116 and both of A549) at 37° C. under a humidified atmosphere in a 5% CO2 incubator. Exponentially growing B16-F10, HCT-116 and A549 cells were harvested, counted and suspended in the culture medium at 1.5×10^4, 3×10^4 and 3×10^4 cells/ml, respectively. After planting 180 μl of cell suspension into wells of a 96-well microtiter plate on day 0, the test materials (20 μl) were added on day 1 and the plates were incubated for 72 hours. The cytotoxic activity was colorimetrically determined at 540 nm after staining viable cells with neutral red solution.
# [10] = system: A549 (human lung carcinoma) cells; experiment: In vitro cytotoxicity (Table 14); type: cell-based; settings: A549, 72 h
# Protocol: as §6
# Piricularia oryzae D91 = experiment: microbe, parasite or virus in culture; type: cell-based; settings: 40 h, pH 7
# fungi = experiment: In vitro antifungal activity, overall statement; settings: various fungi
# Protocol: as §4
# Mucor spinosus IF05317 = experiment: In vitro antifungal activity, serial agar dilution; settings: IF05317, 40 h, pH 7
# Protocol: as §4
# [11] = system: Cryptococcus neoformans D49; experiment: In vitro antifungal activity, serial agar dilution; settings: D49, 40 h, pH 7
# Protocol: as §4
# A. fumigatus IAM2034 = experiment: microbe, parasite or virus in culture; settings: Aspergillus fumigatus, IAM2034, 40 h, pH 7
# Protocol: as §4
# [12] = 0.1 mg/kg/day ip, significant if T/C ≥ 125%
# [13] = 0.3 mg/kg/day ip, *2 significant, T/C ≥ 125%
# [14] = 1 mg/kg/day ip, *2 significant, T/C ≥ 125%
# [15] = 3 mg/kg/day ip, *2 significant, T/C ≥ 125%
# [16] = 10 mg/kg/day ip, *2 significant, T/C ≥ 125%
smiles,measurement,setting,value
CCCCC/C=C/C=C\C=C/C(O)C(C)C(C/C=C/C1OC(=O)C=CC1O)OS(=O)(=O)O (stereo not drawn) [BU-3285T],MIC,T. mentagrophytes #4329,12.5 µg/mL
same,activity compared with mitomycin C,"B16 melanoma; B16, in terms of minimum effective dose",somewhat weaker
same,in vivo antitumor activity,B16 melanoma; B16 melanoma in mice,potent in vivo inhibitory activity; also recorded: good antitumor activity
same,MIC,C. neoformans IAM4514,1.6 µg/mL
same,inhibition of protein synthesis (specificity),[1]; L-1210 leukemia cells,specific inhibitor of protein synthesis
same,IC50,"[1]; Mus musculus, L1210, labelled precursor, 15 min + 60 min, 37° C., read-out: IC50, protein synthesis",0.78 µg/mL
same,inhibition of protein synthesis stronger than RNA synthesis,"[1]; protein vs RNA synthesis, L1210 cells",18 times
same,Body wt. change on day 6,L1210 leukemia; 0.1 mg/kg/day ip,+2.3 g
same,MST (median survival time),L1210 leukemia; 0.1 mg/kg/day ip,8.0 days
same,T/C,L1210 leukemia; [12],114%
same,Body wt. change on day 6,L1210 leukemia; 0.3 mg/kg/day ip,+2.5 g
same,MST (median survival time),L1210 leukemia; 0.3 mg/kg/day ip,8.0 days
same,T/C,L1210 leukemia; [13],114%
same,Body wt. change on day 6,L1210 leukemia; 1 mg/kg/day ip,+1.5 g
same,MST (median survival time),L1210 leukemia; 1 mg/kg/day ip,9.0 days
same,T/C,L1210 leukemia; [14],129%
same,Body wt. change on day 6,L1210 leukemia; 3 mg/kg/day ip,+1.5 g
same,MST (median survival time),L1210 leukemia; 3 mg/kg/day ip,9.0 days
same,T/C,L1210 leukemia; [15],129%
same,Body wt. change on day 6,L1210 leukemia; 10 mg/kg/day ip,0.0 g
same,MST (median survival time),L1210 leukemia; 10 mg/kg/day ip,10.5 days
same,T/C,L1210 leukemia; [16],150%
same,activity compared with mitomycin C,"L1210 leukemia; L1210, in terms of minimum effective dose",somewhat weaker
same,in vivo antitumor activity,L1210 leukemia; L1210 leukemia in mice,potent in vivo inhibitory activity; also recorded: good antitumor activity
same,cytotoxicity in vitro,[2]; murine and human tumor cell lines,exhibits in vitro antifungal activity and cytotoxicity; also recorded: quite active
same,IC50 values against the murine and human tumor cell lines (range),[2]; range over cell lines of Table 14,1.9 to 38 µg/mL
same,IC50,[3],14.4 µg/mL
same,MIC,Candida albicans IAM4888,25 µg/mL
same,MIC,[4],25 µg/mL
same,MIC,[5],25 µg/mL
same,Body wt. change on day 4,P388 leukemia; 0.1 mg/kg/day ip,+1.5 g
same,MST (median survival time),P388 leukemia; 0.1 mg/kg/day ip,12.0 days
same,T/C,P388 leukemia; [12],120%
same,Body wt. change on day 4,P388 leukemia; 0.3 mg/kg/day ip,+1.0 g
same,MST (median survival time),P388 leukemia; 0.3 mg/kg/day ip,13.0 days
same,T/C,P388 leukemia; [13],130%
same,Body wt. change on day 4,P388 leukemia; 1 mg/kg/day ip,+1.0 g
same,MST (median survival time),P388 leukemia; 1 mg/kg/day ip,14.0 days
same,T/C,P388 leukemia; [14],140%
same,Body wt. change on day 4,P388 leukemia; 3 mg/kg/day ip,+1.5 g
same,MST (median survival time),P388 leukemia; 3 mg/kg/day ip,15.0 days
same,T/C,P388 leukemia; [15],150%
same,Body wt. change on day 4,P388 leukemia; 10 mg/kg/day ip,0.0 g
same,MST (median survival time),P388 leukemia; 10 mg/kg/day ip,16.0 days
same,T/C,P388 leukemia; [16],160%
same,activity compared with mitomycin C,"P388 leukemia; P388, in terms of minimum effective dose",comparable
same,in vivo antitumor activity,P388 leukemia; P388 leukemia in mice,potent in vivo inhibitory activity; also recorded: good antitumor activity
same,IC50,[6],17 µg/mL
same,IC50,"[7]; Homo sapiens, 72 h",0.85 µg/mL
same,"cytotoxic activity, comparison among cell lines","[7]; among B16-F10, HCT-116 and Moser",most potent cytotoxic activity against Moser cells
same,IC50,"[8]; Mus musculus, P388/VCR, 72 h",4.4 µg/mL
same,cytotoxicity against P388/VCR compared with parent cells,[8]; vs P388 parent,almost the same cytotoxicity
same,IC50,[9],38 µg/mL
same,IC50,[10],4.1 µg/mL
same,MIC,Piricularia oryzae D91,50 µg/mL
same,antifungal activity in vitro,fungi,exhibits in vitro antifungal activity
same,antifungal activity in vitro,fungi; listed as BU-3285 T,relatively good and broad antifungal profile
same,MIC,Mucor spinosus IF05317,25 µg/mL
same,MIC,[11],1.6 µg/mL
same,MIC,A. fumigatus IAM2034,> 100 µg/mL
